Data as given in patent US8242152B2, “Use of 4-[(4-thiazolyl)phenoxy]alkoxy-benzamidine derivatives for the prophylaxis and treatment of osteoporosis” (Dong Wha Pharmaceutical Co., Ltd., priority 2001, dated 2012).
Several values for one entry are separate records, joined by “and”; a condition that tells them apart may be missing. Equal entries are not always repeated. Where two headings read alike, the source gives them in different places.

How the values were obtained:
[1] = test system: bone resorption of osteoclast; assay: Measurement of bone resorption, pit formation assay on ivory fragment (Example 3); type: cell-based, mice; settings: 24 hrs; for inhibition at 0.016 µM / inhibition at 0.08 µM / inhibition at 0.4 µM / inhibition at 2 µM / inhibition at 10 µM / IC50: Mus musculus, Osteoclast; for inhibition at 0.016 µM / inhibition at 0.08 µM / inhibition at 0.4 µM / inhibition at 2 µM / inhibition at 10 µM: read-out: Inhibitory action (%)
Method: The mature osteoclast (OCL) is mainly involved in removing mineral by bone resorption. This experiment is designed to measure the inhibitory effects of each test substance on the bone resorption of osteoclast using ivory fragment (Eijiro Jimi et al. Endocrinology 137, p 2187-2190, 1996).
The co-culture system for both bone marrow cells and osteoblast was performed using a cultivation dish containing collagen gel (cell matrix Type I-A). Collagen, 5-fold concentrated α-MEM medium and 0.05M NaOH buffer solution (2.2% NaHCO3, pH7.4) were mixed at the ratio of 7:2:1 at a low temperature, and then storage at a low temperature. Then, 4 mL of the mixed solution was added to a 100 mm culture dish, applied evenly and left at 37° C. for 5 minutes.
Using α-MEM medium, the mixture of both bone marrow cells (about 1×10^7 cells/plate) and osteoblast (about 5×10^5 cells/plate), so separated from Example 1, were plated on a 100 mm dish containing collagen gel. The co-culture was performed in the presence of differentiation factors such as vitamin D (10^−9M) and dexamethasone (10^−6M). As described above, a great number of mature multinucleated osteoclasts with the ability of bone resorption were obtained via a 7-day co-culture. The medium was removed from the cells and with the addition of 0.2% collagenase solution, the attachment cells were separated by incubation for 20 minutes. The cells were collected via centrifuge. The harvested crude osteoclasts were again diluted in α-MEM medium to make the cells of 5,000 cells/100 ul.
Hematoxylin staining solution was prepared in a manner such that hematoxylin (1 g) was dissolved in 500 ml of distilled water and was added to 500 ml of distilled water and […] (0.2 g). The reaction mixture was stirred for 15 mins. Ammonium alum (50 g) and 7.5 ml of acetic acid were further added to the reaction mixture and filtered off.
After the ivory fragments, cut to a thickness of 1 mm, were sterilized, each fragment was placed into a 96 well plate, and 100 ul α-MEM medium (10% FBS) was added. To measure its inhibitory effect against the pit formation of osteoclast, each test substance was added in a maximum amount of 3 ul per concentration.
With the addition of test substances, 100 ul of osteoclast solution was further added, mixed vigorously and cultured using a 5% CO2 incubator at 37° C. for 24 hrs. To observe the pits formed on the ivory fragments, the portion of grown osteoclast was directed upward and placed on a paper towel after removing from the 96 well plate. With the removal of cells on the ivory, 10 ul of hematoxylin solution was dropped on the ivory to perform the staining for about 5 minutes. The surface of the ivory fragments was rubbed with a soft cotton pole to completely remove the staining solution.

LTB4 receptor [2] = target: T1, LTB4 receptor (Homo sapiens, UniProt Q15722); assay: LTB4 receptor binding assay on human neutrophils ([3H]-LTB4); parameters: endogenous in cells; host or cells: human neutrophils (PMN) purified from fresh blood; settings: 100 nM; versus DW1350
Method: Neutrophils (PMN) were purified from freshly drawn human blood by standard techniques or dextran T-500 sedimentation and centrifugation on Ficoll/Paquc (pharmacia) followed by hypotonic lysis of crythrocyte. The purified PMN were resuspended to a final concentration of 3×10^7 cells/ml in HESS (Hank's balanced salt solution, Gibco).
The assay was performed following the method described elsewhere (Brown. A. R.; Grccnham, N. C.; Burroughes, J. H.: Bradely, D. C. C.; Friend. R. H.; Burn, P. L.; Kraft. A.: Holmes, A. B.; Chem. Phys, Lett. 1992, 200, 1246). LTB4 receptor binding assay was performed in 12×75 mm polypropylene tubes containing 0.5 nM of [^3H]-LTB4 (200 Ci/mmol), competitive compound, and cells suspended in HBSS (3×10^6 cells) (final volume: 200 ul). The tubes were incubated on ice for 45 minutes. Free and PMN bound [^3H]-LTB4 were separated by filtration through Whatman GF/C filters. The filters were then washed three times with 5 ml of ice cold Tris buffer (pH 7.4). […] The radioactivity was measured by liquid scintillation spectrometry. The specific binding was determined as the count difference total binding and binding in the presence of 1000-fold excess of unlabeled LTB4 (Scontrol). The LTB4 binding activity was calculated from the percent inhibition of specific [^3H]-LTB4 binding at various concentrations (Ssample). […]

LTB4 receptor [3] = target: T1, LTB4 receptor; parameters: endogenous in cells; host or cells: human neutrophils (PMN) purified from fresh blood; settings: cited from earlier work

T1 sequence (Q15722 whole entry): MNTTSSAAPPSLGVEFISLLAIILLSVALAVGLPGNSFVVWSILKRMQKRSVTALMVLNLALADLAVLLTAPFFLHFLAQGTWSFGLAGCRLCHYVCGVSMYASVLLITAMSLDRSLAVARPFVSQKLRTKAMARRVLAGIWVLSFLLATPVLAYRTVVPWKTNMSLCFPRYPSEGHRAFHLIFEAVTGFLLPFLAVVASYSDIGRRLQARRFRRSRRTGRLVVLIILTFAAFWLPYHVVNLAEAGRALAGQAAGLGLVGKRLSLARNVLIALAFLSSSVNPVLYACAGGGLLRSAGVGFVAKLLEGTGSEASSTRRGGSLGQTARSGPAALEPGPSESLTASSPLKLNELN

Compound	Inhibitory action (%) ([1]; 0.016 μM)	Inhibitory action (%) ([1]; 0.08 μM)	Inhibitory action (%) ([1]; 0.4 μM)	Inhibitory action (%) ([1]; 2 μM)	Inhibitory action (%) ([1]; 10 μM)	times the inhibition of LTB4 receptor binding of DW1350 (LTB4 receptor [2])	Inhibition (%) of LTB4 receptor binding (LTB4 receptor [3]; 100 nM) [%]	Inhibition (%) of LTB4 receptor binding (LTB4 receptor [3]; 1 uM) [%]	inhibition at 0.016 µM ([1]; 0.016 μM) [%]	inhibition at 0.08 µM ([1]; 0.08 μM) [%]	inhibition at 0.4 µM ([1]; 0.4 μM) [%]	inhibition at 2 µM ([1]; 2 μM) [%]	inhibition at 10 µM ([1]; 10 μM) [%]	IC50 [1] [nM]	Inhibition (%) of LTB4 receptor binding (LTB4 receptor [3]; 100 nM, 0.1 µM)	Inhibition (%) of LTB4 receptor binding (LTB4 receptor [3]; 100 nM, listed as 1350, 0.1 µM) [%]
4-[5-[4-(aminoiminomethyl)phenoxy]pentoxy]-3-methoxy-N,N-bis(1-methylethyl)benzamide maleic acid [CGS-25019C]	0	0	2	9.2	17.3	–	–	–	–	–	–	–	–	–	–	–
Cc1nc(-c2ccc(OCCCCOc3ccc(C(=N)NO)cc3)cc2)c(C(C)C)s1 [DW1349, N— hydroxy-4-{4-[4-(5-isopropyl-2-methyl-1,3-thiazol-4-yl)phenoxy]butoxy}-benzamidine]	–	–	–	–	–	more than three times	32.7	87.2	–	–	–	–	–	–	–	–
Cc1nc(-c2ccc(OCCCCCOc3ccc(C(=N)NO)cc3)cc2)c(C(C)C)s1 [DW1350, N-hydroxy-4-{5-[4-(5-isopropyl-2-methyl-1,3-thiazol-4-yl)phenoxy]pentoxy}-benzamidine]	–	–	–	–	–	–	–	92.3	32.2	53.9	65.2	84.3	91.3	75	10% and < 10%	<10
Cc1nc(-c2ccc(OCCCCOc3ccc(C(=N)N)cc3)cc2)c(C(C)C)s1 [DW1351, 4-{4-[4-(5-isopropyl-2-methyl-1,3-thiazol-4-yl)phenoxy]butoxy}-benzamidine]	–	–	–	–	–	more than eight times	89	100	–	–	–	–	–	–	–	–
Cc1nc(-c2ccc(OCCCCCOc3ccc(C(=N)N)cc3)cc2)c(C(C)C)s1 [DW1352, 4-{5-[4-(5-isopropyl-2-methyl-1,3-thiazol-4-yl)phenoxy]pentoxy}-benzamidine]	–	–	–	–	–	–	88	100	25	48.7	61.3	81.7	90	131	–	–
COc1cc(C(=O)N(C(C)C)C(C)C)ccc1OCCCCOc1ccc2c(N)noc2c1 [HS1141, N,N-diisopropyl-4-[4-(3-aminobenzo[d]isooxazole-6-yloxy)butoxy]-3-methoxybenzamide]	–	–	–	–	–	–	–	100	9	33	50.4	75.3	88.7	421	–	–
